The target of one data set is T1, human GVIA iPLA2 (Homo sapiens, UniProt O60733).
T1 sequence (O60733 1-806): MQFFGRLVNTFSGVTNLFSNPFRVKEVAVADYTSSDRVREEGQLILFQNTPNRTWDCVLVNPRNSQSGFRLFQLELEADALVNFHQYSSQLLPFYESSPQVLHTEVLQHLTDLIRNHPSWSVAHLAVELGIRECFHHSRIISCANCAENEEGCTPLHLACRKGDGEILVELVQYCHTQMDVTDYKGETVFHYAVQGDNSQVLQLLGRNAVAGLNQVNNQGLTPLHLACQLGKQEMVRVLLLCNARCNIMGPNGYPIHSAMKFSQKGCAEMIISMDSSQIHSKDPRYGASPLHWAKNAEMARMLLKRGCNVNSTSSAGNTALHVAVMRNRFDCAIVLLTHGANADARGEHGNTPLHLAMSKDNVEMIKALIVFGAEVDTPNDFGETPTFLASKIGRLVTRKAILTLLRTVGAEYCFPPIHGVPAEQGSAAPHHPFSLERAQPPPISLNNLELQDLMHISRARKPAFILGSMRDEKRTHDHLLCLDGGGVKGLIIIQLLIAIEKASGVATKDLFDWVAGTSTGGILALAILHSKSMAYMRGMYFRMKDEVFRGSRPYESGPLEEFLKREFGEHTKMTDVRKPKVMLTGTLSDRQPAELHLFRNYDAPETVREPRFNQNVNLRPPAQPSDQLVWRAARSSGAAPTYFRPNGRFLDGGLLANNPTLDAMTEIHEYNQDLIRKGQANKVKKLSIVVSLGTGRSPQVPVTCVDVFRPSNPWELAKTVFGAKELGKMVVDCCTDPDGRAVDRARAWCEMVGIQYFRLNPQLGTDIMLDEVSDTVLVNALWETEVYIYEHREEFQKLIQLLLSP
The experiment in a line: In vitro mixed micelle assay, GVIA iPLA2. Type of data set: biochemical. Particulars: for inhibition at 0.091 mole fraction: mixed micelles, 0.091 mole fraction of inhibitor, Table 6, read-out: GVIA iPLA2 % Inhib. On the procedure: At first, the percent of inhibition for each PLA2 enzyme at 0.091 mole fraction of each inhibitor was determined. […] The XI(50) is the mole fraction of the inhibitor in the total substrate interface required to inhibit the enzyme activity by 50%. […] (ii) GVI iPLA2 substrate mixed-micelles were composed of 400 μM Triton X-100, 98.3 μM PAPC, and 1.7 μM ^14C-labeled PAPC in buffer containing 100 mM HEPES, pH 7.5, 2 mM ATP, and 4 mM DTT; (iii) GV sPLA2 substrate mixed-micelles were composed of 400 μM Triton X-100, 98.3 μM PAPC, and 1.7 μM ^14C-labeled PAPC in buffer containing 50 mMTris, pH 8.0, and 5 mM […] CaCl2.

Data set [1] relates to AA release in SW982 cells. The experiment in a line: Ex vivo cellular arachidonic acid (AA) release assay, IL-1β stimulated. The settings on record: for inhibition / IC50: Homo sapiens; for inhibition: % inhibition at 10 pM oxothiazole (so in the source), read-out: AA release % Inhib. It counts as cell-based, human. On the procedure: (§1) The effect of the oxothiazoles synthesized on the release of AA and OA in synoviocytes was evaluated as previously described.^54 The percent inhibition of AA and OA was determined at a 10 μM inhibitor concentration, while for the determination of the IC50 value the inhibitors were tested in a 0-20 μM range after IL-1β stimulation for 4 h.
(§2) The human synovial sarcoma cell line SW982 was from ATCC (UK) and was used as a model system to monitor AA/OA release and activation of GIVA cPLA2. SW982 cells were passaged bi-weekly by routine trypsin detachment and kept in a sub-confluent state. The cells were maintained in Dulbecco's Modified Eagle Medium (DMEM) supplemented with 10% FBS, 0.1 mg/mL gentamicin and 0.3 mg/mL L-glutamine at 37° C. with 10% CO2. For AA release, 5*10^5 cells were seeded pr well in a 48-well per plate format. Experiments were performed at 3 days post-confluency following overnight serum deprivation in serum-free DMEM to ensure differentiation and synchronization of the cells.
(§3) AA and OA release was analyzed as previously described.^54 At 2 days post-confluency, SW982 cells were serum-starved and labelled overnight with ^3H-AA (0.4 μCi/ml) and ^14C-OA (0.067 μCi/ml) in serum-free DMEM. Prior to the addition of oxothiazoles, the cells were washed twice with PBS containing fBSA (2 mg/ml) and PBS in order to remove unincorporated radioactivity. Cells were pretreated (1 h) with oxothiazoles prior to IL-1β stimulation (10 ng/mL, 4 h). Following IL-1β stimulation, the supernatants were cleared of detached cells by centrifugation (13000 rpm, 5 min). The release of ^3H-AA and ^14C-OA from the cells was assessed by liquid scintillation counting (LS 6500 Multi-Purpose Scintillation Counter, Beckman Coulter, Inc (USA). Adherent cells were dissolved in 1N NaOH in order to determine incorporated ^3H-AA and ^14C-OA in the cells by liquid scintillation counting. In all experiments, DMSO was included for vehicle control ([…]0.05%).
(§4) Following treatments, cells were routinely observed by microscopy to ensure unaltered cell morphology, integrity and viability. The results are given as inhibition of released ^3H-AA and ^14C-OA in the supernatants relative to total ^3H-AA and ^14C-OA incorporated into the cells, from at least three independent experiments performed in triplicates.

Data set [2] deals with OA release in SW982 cells. The experiment in a line: Ex vivo cellular oleic acid (OA) release assay, IL-1β stimulated. Type of data set: cell-based. The settings on record: Homo sapiens; SW982 synoviocytes; 4 h IL-1β stimulation; % inhibition at 10 pM oxothiazole (so in the source); read-out: OA release % Inhib. On the procedure: as §1, §2, §3, §4
Another data set relates to PGE2. The experiment in a line: PGE2-assay (Tables 2 and 4). It counts as cell-based. Particulars: Table 2; head says % inhibition, cells print μM. An excerpt: Experimental procedures suitable for the formation and testing of these compounds can be found in WO2011/039365 as well as references cited therein.
Where [3] appears, read: SW982 synoviocytes, 4 h IL-1β stimulation.
The mark [4] stands for this setting: SW982 synoviocytes, tested in 0-20 μM range, 4 h IL-1β stimulation, read-out: AA release IC50.
[5] abbreviates: SW982 cells, tested 0-20 μM, Tables 2 and 4, read-out: AA release SW982 cells (0-20 μM) IC50.

Structures are written as SMILES. Where two headings read alike, the source gives them in different places. A value given as a limit tells only on which side of the number the result lay.

The term IC50 denotes the concentration at which inhibition is half-maximal. For `CCCCCCCCc1ccc(OCC(=O)c2nc(CC(=O)OCC)cs2)cc1` [Compound Y, Ethyl 2-(2-(2-(4-octylphenoxy)acetyl)thiazol-4-yl)acetate], at human GVIA iPLA2, the inhibition at 0.091 mole fraction is 76%. Also, the inhibition in data set [1] (setting [3]) worked out at 71%. The IC50 in data set [1] (setting [4]) is 5 µM. The inhibition at 10 µM in data set [2] was 20%.
For the compound `CCCCCCCCc1ccc(OCC(=O)c2nc(C(=O)OC)cs2)cc1` [Compound A, Methyl 2-(2-(4-octylphenoxy)acetyl)thiazole-4-carboxylate], the results for the IC50 (in the data set on PGE2; in data set [1] (setting [5]); in data set [1] (setting [4])) were around 0.75 µM, around 0.6 µM and 0.6 µM, respectively. Also, the “GVIA iPLA2 % Inhibition” value on human GVIA iPLA2 (Tables 2 and 4) worked out at 86.4%. For the same compound, the inhibition at 0.091 mole fraction at human GVIA iPLA2 was determined as 86%. In addition, the inhibition in data set [1] (setting [3]) is above 90%. In addition, the inhibition at 10 µM in data set [2] turned out to be 40%.
The melting point is the temperature, or range, at which the solid turns liquid. On to `O=C(COc1ccccc1)c1nccs1` [Compound D, 2-Phenoxy-1-(thiazol-2-yl)ethanone], for which the melting point lay in the range of 77 to 79 °C. In addition, at human GVIA iPLA2, the inhibition at 0.091 mole fraction amounted to 13%. Moreover, the IC50 in data set [1] (setting [5]) was above 20 µM. Also, the inhibition in data set [1] (setting [3]) is 12%. The IC50 in data set [1] (setting [4]) is above 20 µM. Besides, the inhibition at 10 µM in data set [2] came out at 20%.
In turn, `O=C(COc1ccc(-c2ccccc2)cc1)c1nccs1` [Compound B, 2-(Biphenyl-4-yloxy)-1-(thiazol-2-yl)ethanone] registered a melting point of 130 to 133 °C. Further, in the data set on PGE2, the half-maximal inhibitory concentration (IC50) was around 6 µM. Also, the inhibition at 0.091 mole fraction on human GVIA iPLA2 turned out to be 23%. For the same compound, in data set [1] (setting [5]), the IC50 was around 2.5 µM. Besides, the inhibition in data set [1] (setting [3]) was determined as 73%. Further, the IC50 in data set [1] (setting [4]) was found to be 2.8 µM. Besides, the “inhibition of the AA release (in words)” value in data set [1] (SW982 synoviocytes) was “interesting inhibition”. For the same compound, in data set [2], the inhibition at 10 µM turned out to be 25%.
Regarding `O=C(COc1ccc(F)cc1)c1nccs1` [Compound C, 2-(4-Fluorophenoxy)-1-(thiazol-2-yl)ethanone], the melting point fell in the range of 74 to 77 °C. For the same compound, at human GVIA iPLA2, the inhibition at 0.091 mole fraction was 5%. The IC50 in data set [1] (setting [5]) is above 20 µM. Also, in data set [1] (setting [3]), the inhibition worked out at 0%. The inhibition at 10 µM in data set [2] is 25%.
Consider `CCCCCCCCCCCCOCC(=O)c1nc(C(=O)OCC)cs1` [Compound W, Ethyl 2-(2-(dodecyloxy)acetyl)thiazole-4-carboxylate], for which the inhibition at 0.091 mole fraction at human GVIA iPLA2 was 92%. In addition, the inhibition in data set [1] (setting [3]) was 9%. Moreover, in data set [1] (setting [4]), the IC50 is above 20 µM. In addition, the “inhibition of the AA release (in words)” value in data set [1] (SW982 synoviocytes) is “interesting inhibition”. Further, in data set [2], the inhibition at 10 µM was found to be 0%.
As to `CCCCCCCCc1ccc(OCC(=O)c2nccs2)cc1` [Compound T, 2-(4-Octylphenoxy)-1-(thiazol-2-yl)ethanone], the inhibition at 0.091 mole fraction at human GVIA iPLA2 is 67%. Moreover, in data set [1] (setting [3]), the inhibition is above 90%. For the same compound, the IC50 in data set [1] (setting [4]) amounted to 3.6 µM. In addition, the “inhibition of the AA release (in words)” value in data set [1] (SW982 synoviocytes) is given as “interesting inhibition”. Besides, the inhibition at 10 µM in data set [2] was 0%.
Take `CCCCCCCCCCCCOCC(=O)c1nc(CC(=O)OCC)cs1` [Compound X, Ethyl 2-(2-(2-(dodecyloxy)acetyl)thiazol-4-yl)acetate]: on human GVIA iPLA2, the inhibition at 0.091 mole fraction worked out at 91%. Besides, in data set [1] (setting [3]), the inhibition was found to be 0%. In data set [1] (SW982 synoviocytes), the “inhibition of the AA release (in words)” value is “interesting inhibition”. The inhibition at 10 µM in data set [2] is 0%.
